Measurements from patent US20050004186A1, “MEK inhibiting compounds” (Pfizer Inc, priority 2002, published 2005).
“And” between values parts separate entries of the source, which are not always exact repeats. Equal entries are not always repeated. Structures can show the parent of a compound that is named as a salt.

Columns and labels:
[1] = test system: MEK; test: Cellular assay for measuring MEK inhibition, C26CPA1 (inhibition of ERK phosphorylation in C26 cells); format: cell-based, murine; conditions: for C26CPA1 % Inhibition @ 0.1 μM / C26CPA1 % Inhibition @ 1 μM: C26 cells; for IC50: murine colon 26 (C26) carcinoma cells, one hour at 37 C
Experimental: Cellular Assay for Measuring MEK Inhibition
MEK inhibitors were evaluated by determining their ability to inhibit phosphorylation of MAP kinase (ERK) in murine colon 26 (C26) carcinoma cells. Since ERK1 and ERK2 represent the only known substrates for MEK1 and MEK2, the measurement of inhibition of ERK phosphorylation in cells provides direct read out of cellular MEK inhibition by the compounds of the invention. Detection of phosphorylation of ERK was carried out either by Western blot or ELISA format. Briefly, the assays involve treatment of exponentially growing C26 cells with varying concentrations of the test compound (or vehicle control) for one hour at 37≡ C. For Western blot assay, cells were rinsed free of compound/vehicle and lysed in a solution containing 70 mM NaCl, 50 mM glycerol phosphate, 10 mM HEPES, […], 1% Triton X-100, 1 mM Na3VO4, 100 μM PMSF, 10 μM leupeptin and 10 μM pepstatin. Supernatants were then subjected to gel electrophoresis and hybridized to a primary antibody recognizing dually phosphorylated ERK1 and ERK2. To evaluate total MAPK levels, blots were subsequently ‘stripped’ and re-probed with a 1:1 mixture of polyclonal antibodies recognizing unphosphorylated ERK1 and ERK2. For pERK ELISA assay, pERK TiterZyme Enzyme immunometric Assay kits were acquired from Assay Designs, Inc (Ann Arbor, Mich.). Briefly, cells were harvested in lysis solution containing 50 mM β-glycerophosphate, 10 mM HEPES, pH7.4, 70 mM NaCl, 2 mM EDTA and 1% SDS and protein lysates were diluted 1:15 with supplied Assay buffer prior to the execution of the assay. The subsequent steps were carried out essentially as recommended by the manufacturer.

Row | Compound | melting point | IC50 [1] | C26CPA1 % Inhibition @ 0.1 μM [1] | C26CPA1 % Inhibition @ 1 μM [1]
1 | Fc1cc(I)ccc1Nc1c(-c2nnc(NCC3CCCO3)o2)ccc(F)c1F (stereo not drawn) [Example 65, {5-[3,4-Difluoro-2-(2-fluoro-4-iodo-phenylamino)-phenyl]-[1,3,4]oxadiazol-2-yl}-(tetrahydro-furan-2-ylmethyl)-amine] | – | – | 0% | 12.7%
2 | CCCCNc1nnc(-c2ccc(F)c(F)c2Nc2ccc(I)cc2F)o1 [Example 36, Butyl-{5-[3,4-difluoro-2-(2-fluoro-4-iodo-phenylamino)-phenyl]-[1,3,4]oxadiazol-2-yl}-amine] | – | – | 23.8% | 67%
3 | CCc1ccc(Nc2c(-c3nnc(N(C)CCc4ccccn4)o3)ccc(F)c2F)c(F)c1 [Example 127, {5-[2-(4-Ethyl-2-fluoro-phenylamino)-3,4-difluoro-phenyl]-1,3,4-oxadiazol-2-yl}-methyl-(2-pyridin-2-yl-ethyl)-amine] | – | – | 0% | 0%
4 | CCc1ccc(Nc2c(-c3nnc(N4CCN(CC)CC4)o3)ccc(F)c2F)c(F)c1 [Example 101, (4-Ethyl-2-fluoro-phenyl)-{6-[5-(4-ethyl-piperazin-1-yl)-1,3,4-oxadiazol-2-yl]-2,3-difluoro-phenyl}-amine] | – | – | 41.2% | 47.1%
5 | Fc1cc(I)ccc1Nc1c(-c2nnc(NCCOc3ccccc3)o2)ccc(F)c1F [Example 34, {5-[3,4-Difluoro-2-(2-fluoro-4-iodo-phenylamino)-phenyl]-[1,3,4]oxadiazol-2-yl}-(2-phenoxy-ethyl)-amine] | – | – | 0% | 69%
6 | CCc1ccc(Nc2c(-c3nnc(N4CCN(Cc5ccccn5)CC4)o3)ccc(F)c2F)c(F)c1 [Example 123, {2,3-Difluoro-6-[5-(4-pyridin-2-ylmethyl-piperazin-1-yl)-1,3,4-oxadiazol-2-yl]-phenyl}-(4-ethyl-2-fluoro-phenyl)-amine] | – | – | 0% | 0%
7 | C=CCN(CC=C)c1nnc(-c2ccc(F)c(F)c2Nc2ccc(CC)cc2F)o1 [Example 83, Diallyl-{5-[2-(4-ethyl-2-fluoro-phenylamino)-3,4-difluoro-phenyl]-1,3,4-oxadiazol-2-yl}-amine] | – | – | 65.6% | 77.9%
8 | CN(CCc1ccncc1)c1nnc(-c2ccc(F)c(F)c2Nc2ccc(I)cc2F)o1 [Example 43, {5-[3,4-Difluoro-2-(2-fluoro-4-iodo-phenylamino)-phenyl]-[1,3,4]oxadiazol-2-yl}-methyl-(2-pyridin-4-yl-ethyl)-amine] | – | – | 26.6% | 31.7%
9 | CCc1ccc(Nc2c(-c3nnc(N(C)CCCN(C)C)o3)ccc(F)c2F)c(F)c1 [Example 93, N^1-{5-[2-(4-Ethyl-2-fluoro-phenylamino)-3,4-difluoro-phenyl]-1,3,4-oxadiazol-2-yl}-N1,N>3,N>3-trimethyl-propane-1.3-diamine] | – | – | 0% | 31.9%
10 | Fc1cc(I)ccc1Nc1c(-c2nnc(NCCc3ccncc3)o2)ccc(F)c1F [Example 35, {5-[3,4-Difluoro-2-(2-fluoro-4-iodo-phenylamino)-phenyl]-[1,3,4]oxadiazol-2-yl}-(2-pyridin-4-yl-ethyl)-amine] | – | – | 0% | 74.9%
11 | Cc1cccc(C)c1OCC(C)Nc1nnc(-c2ccc(F)c(F)c2Nc2ccc(I)cc2F)o1 (stereo not drawn) [Example 59, {5-[3,4-Difluoro-2-(2-fluoro-4-iodo-phenylamino)-phenyl]-[1,3,4]oxadiazol-2-yl}-[2-(2,6-dimethyl-phenoxy)-1-methyl-ethyl]-amine] | – | – | 0% | 0%
12 | COCCN(CCOC)c1nnc(-c2ccc(F)c(F)c2Nc2ccc(I)cc2F)o1 [Example 66, {5-[3,4-Difluoro-2-(2-fluoro-4-iodo-phenylamino)-phenyl]-[1,3,4]oxadiazol-2-yl}-bis-(2-methoxy-ethyl)-amine] | – | – | 0% | 12.5%
13 | CCc1ccc(Nc2c(-c3nnc(N4CCCC4)o3)ccc(F)c2F)c(F)c1 [Example 75, [2,3-Difluoro-6-(5-pyrrolidin-1-yl-1,3,4-oxadiazol-2-yl)-phenyl]-(4-ethyl-2-fluoro-phenyl)-amine] | – | – | – | 39.1% and 30.6%
14 | CCC(C)CNc1nnc(-c2ccc(F)c(F)c2Nc2ccc(I)cc2F)o1 (stereo not drawn) [Example 50, {5-[3,4-Difluoro-2-(2-fluoro-4-iodo-phenylamino)-phenyl]-[1,3,4]oxadiazol-2-yl}-(2-methyl-butyl)-amine] | – | – | 0% | 15.2%

Further lines, with some results ahead:

Row | melting point | IC50 [1] | Compound | C26CPA1 % Inhibition @ 0.1 μM [1] | C26CPA1 % Inhibition @ 1 μM [1]
15 | 154 to 155 °C | – | OCCCNc1nnc(-c2ccc(F)c(F)c2Nc2ccc(I)cc2F)o1 [Example 30, 3-{5-[3,4-Difluoro-2-(2-fluoro-4-iodo-phenylamino)-phenyl]-[1,3,4]oxadiazol-2-ylamino}-propan-1-ol] | – | –
16 | 173 to 176 °C | – | NCCCNc1nnc(-c2ccc(F)c(F)c2Nc2ccc(I)cc2F)o1 (as salt: hydrochloride) [Example 15, N′1′-{5-[3,4-Difluoro-2-(2-fluoro-4-iodo-phenylamino)-phenyl]-[1,3,4]oxadiazol-2-yl}-propane-1,3-diamine] | – | –
17 | 157 to 159 °C | – | NCCCCNc1nnc(-c2ccc(F)c(F)c2Nc2ccc(I)cc2F)o1 (as salt: hydrochloride) [Example 14, N′1′-{5-[3,4-Difluoro-2-(2-fluoro-4-iodo-phenylamino)-phenyl]-[1,3,4]oxadiazol-2-yl}-butane-1,4-diamine] | – | –
18 | 123 to 126 °C | – | CN(C)CCCN(C)c1nnc(-c2ccc(F)c(F)c2Nc2ccc(I)cc2F)o1 (as salt: hydrochloride) [Example 12, N-{5-[3,4-Difluoro-2-(2-fluoro-4-iodo-phenylamino)-phenyl]-[1,3,4]oxadiazol-2-yl}-N,N′,N′-trimethyl-propane-1,3-diamine] | – | –
19 | 120 to 123 °C | – | C=CCNc1nnc(-c2ccc(F)c(F)c2Nc2ccc(CC)cc2F)o1 [Example 70, Allyl-{5-[2-(4-ethyl-2-fluoro-phenylamino)-3,4-difluoro-phenyl]-[1,3,4]oxadiazol-2-yl}-amine] | – | –
20 | 184 to 187 °C | – | CN(C)CCNc1nnc(-c2ccc(F)c(F)c2Nc2ccc(I)cc2F)o1 (as salt: hydrochloride) [Example 17, N-{5-[3,4-Difluoro-2-(2-fluoro-4-iodo-phenylamino)-phenyl]-[1,3,4]oxadiazol-2-yl}-N′,N′-dimethyl-ethane-1,2-diamine] | – | –
21 | 191 to 193 °C | – | Fc1cc(I)ccc1Nc1c(-c2nnc(NCCN3CCCCC3)o2)ccc(F)c1F (as salt: hydrochloride) [Example 13, {5-[3,4-Difluoro-2-(2-fluoro-4-iodo-phenylamino)-phenyl]-[1,3,4]oxadiazol-2-yl}-(2-piperidin-1-yl-ethyl)-amine] | – | –
22 | 156 to 158 °C | – | NCCNc1nnc(-c2ccc(F)c(F)c2Nc2ccc(I)cc2F)o1 (as salt: salt) [Example 11, N′1′-{5-[3,4-Difluoro-2-(2-fluoro-4-iodo-phenylamino)-phenyl]-[1,3,4]oxadiazol-2-yl}-ethane-1,2-diamine] | – | –
23 | – | 45 nM | NCCCCNc1nnc(-c2ccc(F)c(F)c2Nc2ccc(I)cc2F)o1 [Example 14, N′1′-{5-[3,4-Difluoro-2-(2-fluoro-4-iodo-phenylamino)-phenyl]-[1,3,4]oxadiazol-2-yl}-butane-1,4-diamine] | – | –
24 | 82 to 83 °C | – | CCc1ccc(Nc2c(-c3nnc(CC)o3)ccc(F)c2F)c(F)c1 [Example 142, (4-Ethyl-2-fluoro-phenyl)-[6-(5-ethyl-[1,3,4]oxadiazol-2-yl)-2,3-difluoro-phenyl]-amine] | – | –
25 | – | 44 nM | CCOCCCNc1nnc(-c2ccc(F)c(F)c2Nc2ccc(I)cc2F)o1 [Example 56, {5-[3,4-Difluoro-2-(2-fluoro-4-iodo-phenylamino)-phenyl]-[1,3,4]oxadiazol-2-yl}-(3-ethoxy-propyl)-amine] | – | –
26 | – | 136 nM | CN(C)CCCNc1nnc(-c2ccc(F)c(F)c2Nc2ccc(I)cc2F)o1 [Example 16, N-{5-[3,4-Difluoro-2-(2-fluoro-4-iodo-phenylamino)-phenyl]-[1,3,4]oxadiazol-2-yl}-N′,N′-dimethyl-propane-1,3-diamine] | – | –
27 | – | 18 nM | Nc1nnc(-c2cc(Cl)c(F)c(F)c2Nc2ccc(I)cc2F)o1 [Example 2, 5-[5-Chloro-3,4-difluoro-2-(2-fluoro-4-iodo-phenylamino)-phenyl]-[1,3,4]oxadiazol-2-ylamine] | – | –
28 | – | 382 nM | Fc1cc(I)ccc1Nc1c(-c2nnc(NCCN3CCCCC3)o2)ccc(F)c1F [Example 13, {5-[3,4-Difluoro-2-(2-fluoro-4-iodo-phenylamino)-phenyl]-[1,3,4]oxadiazol-2-yl}-(2-piperidin-1-yl-ethyl)-amine] | – | –
29 | – | 140 nM | CN(C)CCNc1nnc(-c2ccc(F)c(F)c2Nc2ccc(I)cc2F)o1 [Example 17, N-{5-[3,4-Difluoro-2-(2-fluoro-4-iodo-phenylamino)-phenyl]-[1,3,4]oxadiazol-2-yl}-N′,N′-dimethyl-ethane-1,2-diamine] | – | –
